US9340590B2 (priority 2011, dated 2016)
Where two headings read alike, the source gives them in different places. Positions of bridges follow the written chain, without caps; N, C: chain ends. Non-standard residues stand in square brackets, D forms with d. Residues, ends and D or L forms follow the SMILES beside them. 1Nal = N[C@@H](Cc1cccc2ccccc12)C(=O)O

Tests used:
Assay in all cases: cell-based
hNav1.5 = hNav1.5 (Homo sapiens, UniProt Q14524)
hNav1.7 = hNav1.7 (Homo sapiens, UniProt Q15858); details: Nav1.7 Use IC50
hNav1.7, sequence (Q15858 whole entry, looked up): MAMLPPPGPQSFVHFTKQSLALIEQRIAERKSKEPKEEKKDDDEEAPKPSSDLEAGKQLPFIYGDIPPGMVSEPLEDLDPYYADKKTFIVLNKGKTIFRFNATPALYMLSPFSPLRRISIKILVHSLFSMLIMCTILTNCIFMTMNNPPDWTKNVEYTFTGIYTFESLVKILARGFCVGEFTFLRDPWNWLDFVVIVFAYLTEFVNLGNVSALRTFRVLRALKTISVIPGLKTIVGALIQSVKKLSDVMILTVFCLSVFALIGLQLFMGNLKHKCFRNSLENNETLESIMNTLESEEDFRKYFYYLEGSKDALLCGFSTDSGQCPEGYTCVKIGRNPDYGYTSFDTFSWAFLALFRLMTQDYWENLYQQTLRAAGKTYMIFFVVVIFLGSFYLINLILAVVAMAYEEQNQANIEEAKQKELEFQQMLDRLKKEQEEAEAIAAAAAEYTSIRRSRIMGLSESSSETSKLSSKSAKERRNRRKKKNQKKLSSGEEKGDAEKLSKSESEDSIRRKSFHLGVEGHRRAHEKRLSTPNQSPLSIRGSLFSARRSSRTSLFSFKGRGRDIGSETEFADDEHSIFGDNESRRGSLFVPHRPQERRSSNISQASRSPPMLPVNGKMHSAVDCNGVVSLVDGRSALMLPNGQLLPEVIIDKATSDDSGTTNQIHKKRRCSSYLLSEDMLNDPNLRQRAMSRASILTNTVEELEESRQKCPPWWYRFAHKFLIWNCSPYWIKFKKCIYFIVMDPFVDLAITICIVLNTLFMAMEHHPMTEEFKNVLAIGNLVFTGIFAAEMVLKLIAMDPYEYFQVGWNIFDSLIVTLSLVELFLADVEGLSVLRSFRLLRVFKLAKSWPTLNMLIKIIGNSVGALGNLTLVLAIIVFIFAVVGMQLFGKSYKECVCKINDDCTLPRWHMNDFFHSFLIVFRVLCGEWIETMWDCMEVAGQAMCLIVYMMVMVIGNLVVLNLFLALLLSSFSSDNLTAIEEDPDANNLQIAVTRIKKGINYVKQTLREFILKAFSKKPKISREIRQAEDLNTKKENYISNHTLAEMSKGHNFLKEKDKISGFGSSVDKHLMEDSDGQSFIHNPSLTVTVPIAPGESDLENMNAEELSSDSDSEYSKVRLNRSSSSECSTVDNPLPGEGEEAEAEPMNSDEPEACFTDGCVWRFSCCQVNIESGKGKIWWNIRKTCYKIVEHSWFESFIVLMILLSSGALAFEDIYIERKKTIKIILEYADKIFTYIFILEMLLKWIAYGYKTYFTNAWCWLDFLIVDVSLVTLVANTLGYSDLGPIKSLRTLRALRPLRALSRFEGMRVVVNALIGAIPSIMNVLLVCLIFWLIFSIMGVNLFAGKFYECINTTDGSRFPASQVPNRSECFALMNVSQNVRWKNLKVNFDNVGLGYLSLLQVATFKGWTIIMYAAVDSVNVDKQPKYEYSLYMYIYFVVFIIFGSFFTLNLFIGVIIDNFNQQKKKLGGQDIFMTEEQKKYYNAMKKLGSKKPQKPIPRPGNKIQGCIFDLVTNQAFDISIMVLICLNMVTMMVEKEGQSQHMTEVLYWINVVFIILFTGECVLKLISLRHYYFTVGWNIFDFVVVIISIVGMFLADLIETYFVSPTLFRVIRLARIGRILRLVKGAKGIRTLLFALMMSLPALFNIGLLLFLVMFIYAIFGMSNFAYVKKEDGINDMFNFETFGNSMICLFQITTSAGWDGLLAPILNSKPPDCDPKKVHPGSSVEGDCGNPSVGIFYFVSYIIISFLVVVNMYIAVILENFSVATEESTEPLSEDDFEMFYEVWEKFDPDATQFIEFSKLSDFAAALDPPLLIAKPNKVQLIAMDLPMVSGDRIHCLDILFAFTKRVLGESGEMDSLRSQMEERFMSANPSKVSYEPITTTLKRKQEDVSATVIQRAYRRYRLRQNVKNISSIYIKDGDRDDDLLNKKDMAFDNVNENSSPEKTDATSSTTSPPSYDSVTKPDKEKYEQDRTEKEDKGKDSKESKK

hNav1.3 = hNav1.3 (Homo sapiens, UniProt Q9NY46); assay type: cell-based; details: Nav1.3 Use IC50

hNav1.5, sequence (Q14524 whole entry, looked up): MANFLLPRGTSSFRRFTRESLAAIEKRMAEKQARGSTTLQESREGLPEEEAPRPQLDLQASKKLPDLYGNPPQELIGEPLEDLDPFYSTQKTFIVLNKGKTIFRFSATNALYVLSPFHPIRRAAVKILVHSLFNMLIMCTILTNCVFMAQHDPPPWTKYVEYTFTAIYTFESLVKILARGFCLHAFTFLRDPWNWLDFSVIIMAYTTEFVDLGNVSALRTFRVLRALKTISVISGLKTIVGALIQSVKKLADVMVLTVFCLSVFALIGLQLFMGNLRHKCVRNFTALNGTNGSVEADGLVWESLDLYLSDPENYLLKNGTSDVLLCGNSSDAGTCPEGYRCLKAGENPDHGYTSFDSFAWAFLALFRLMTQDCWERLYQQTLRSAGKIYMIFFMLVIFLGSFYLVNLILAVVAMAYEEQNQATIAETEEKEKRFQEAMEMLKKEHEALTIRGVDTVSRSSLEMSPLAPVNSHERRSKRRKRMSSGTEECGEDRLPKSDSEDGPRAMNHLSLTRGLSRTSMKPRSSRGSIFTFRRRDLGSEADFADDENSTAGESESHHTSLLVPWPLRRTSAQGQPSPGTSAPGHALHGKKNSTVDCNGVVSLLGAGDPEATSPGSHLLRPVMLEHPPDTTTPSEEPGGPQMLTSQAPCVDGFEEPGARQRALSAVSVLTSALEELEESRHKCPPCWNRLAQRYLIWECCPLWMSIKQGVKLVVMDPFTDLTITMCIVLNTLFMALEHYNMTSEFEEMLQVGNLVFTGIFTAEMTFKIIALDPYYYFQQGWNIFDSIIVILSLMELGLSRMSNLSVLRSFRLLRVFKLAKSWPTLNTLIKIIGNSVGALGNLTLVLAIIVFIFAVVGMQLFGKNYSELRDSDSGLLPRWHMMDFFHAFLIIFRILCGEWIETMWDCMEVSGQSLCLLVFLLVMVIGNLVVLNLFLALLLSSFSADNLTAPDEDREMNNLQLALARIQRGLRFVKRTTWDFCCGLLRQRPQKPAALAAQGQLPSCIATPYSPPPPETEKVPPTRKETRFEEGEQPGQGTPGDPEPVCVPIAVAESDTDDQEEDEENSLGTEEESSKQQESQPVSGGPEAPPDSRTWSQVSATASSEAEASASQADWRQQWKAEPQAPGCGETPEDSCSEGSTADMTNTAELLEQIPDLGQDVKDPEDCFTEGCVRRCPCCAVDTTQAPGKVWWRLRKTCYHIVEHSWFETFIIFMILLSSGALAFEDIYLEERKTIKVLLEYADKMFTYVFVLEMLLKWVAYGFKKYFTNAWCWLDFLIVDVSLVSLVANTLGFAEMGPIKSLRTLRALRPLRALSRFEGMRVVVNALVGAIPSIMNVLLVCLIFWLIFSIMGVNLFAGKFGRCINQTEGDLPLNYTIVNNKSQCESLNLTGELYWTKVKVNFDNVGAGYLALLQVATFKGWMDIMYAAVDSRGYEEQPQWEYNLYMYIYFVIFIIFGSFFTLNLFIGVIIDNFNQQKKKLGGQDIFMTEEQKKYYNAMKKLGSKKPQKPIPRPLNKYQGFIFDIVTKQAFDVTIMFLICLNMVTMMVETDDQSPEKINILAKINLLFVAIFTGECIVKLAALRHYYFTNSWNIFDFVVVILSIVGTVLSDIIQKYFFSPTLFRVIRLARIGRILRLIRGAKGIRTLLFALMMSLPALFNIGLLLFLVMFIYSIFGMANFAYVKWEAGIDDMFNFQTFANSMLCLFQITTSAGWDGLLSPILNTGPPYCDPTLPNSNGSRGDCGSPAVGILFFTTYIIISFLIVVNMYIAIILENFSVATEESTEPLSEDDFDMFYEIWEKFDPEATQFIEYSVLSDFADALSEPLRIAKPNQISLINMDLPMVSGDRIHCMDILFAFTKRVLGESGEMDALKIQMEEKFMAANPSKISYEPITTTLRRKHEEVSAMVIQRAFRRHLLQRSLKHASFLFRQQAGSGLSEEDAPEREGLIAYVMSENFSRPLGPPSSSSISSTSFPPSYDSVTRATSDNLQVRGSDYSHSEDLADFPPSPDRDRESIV

Compound	IC50 (hNav1.5; read-out: Nav1.5 Use IC50)	IC50 (hNav1.7)	IC50 (hNav1.3)	IC50 (hNav1.5)
CC[C@H](C)[C@@H]1NC(=O)[C@@H]2CSSC[C@@H]3NC(=O)[C@H](C(C)C)NC(=O)[C@H](CC(C)C)NC(=O)[C@H](CC(N)=O)NC(=O)[C@@H]4CCCN4C(=O)[C@H](CCCNC(=N)N)NC(=O)[C@H](CSSC[C@H](NC(=O)[C@@H](N)CC(=O)O)C(=O)N[C@@H](CC(C)C)C(=O)NCC(=O)N[C@@H](Cc4ccccc4)C(=O)N[C@@H](CCSC)C(=O)N[C@@H](CCCNC(=N)N)C(=O)N[C@@H](CCCCN)C(=O)N2)NC(=O)[C@H](CSSC[C@@H](C(=O)N[C@@H](CCCCN)C(=O)N[C@@H](Cc2ccc(O)cc2)C(=O)N[C@H](C(=O)N[C@@H](Cc2ccccc2)C(N)=O)C(C)C)NC(=O)[C@H](Cc2c[nH]c4ccccc24)NC(=O)[C@H](CCCNC(=N)N)NC(=O)[C@H](Cc2c[nH]cn2)NC(=O)[C@H]([C@@H](C)O)NC(=O)[C@H](CCCNC(=N)N)NC(=O)[C@H](CO)NC3=O)NC(=O)[C@H](CCCCN)NC(=O)[C@H](CC(=O)O)NC(=O)[C@H](CC(N)=O)NC(=O)[C@H](CC(=O)O)NC(=O)[C@@H]2CCCN2C1=O [[Arg28]GpTx-1(1-34)]	8730 nM	7 nM	12 nM	–
CC[C@H](C)[C@@H]1NC(=O)[C@@H]2CSSC[C@@H]3NC(=O)[C@H](C(C)C)NC(=O)[C@H](CC(C)C)NC(=O)[C@H](CC(N)=O)NC(=O)[C@@H]4CCCN4C(=O)[C@H](CCCNC(=N)N)NC(=O)[C@H](CSSC[C@H](NC(=O)[C@@H](N)CC(=O)O)C(=O)N[C@@H](CC(C)C)C(=O)NCC(=O)N[C@@H](Cc4ccccc4)C(=O)N[C@@H](CCSC)C(=O)N[C@@H](CCCNC(=N)N)C(=O)N[C@@H](CCCCN)C(=O)N2)NC(=O)[C@H](CSSC[C@@H](C(=O)N[C@@H](CCCCN)C(=O)N[C@@H](Cc2ccc(O)cc2)C(=O)N[C@@H](CCC(=O)O)C(=O)N[C@@H](Cc2ccccc2)C(N)=O)NC(=O)[C@H](Cc2c[nH]c4ccccc24)NC(=O)[C@H](CCCCN)NC(=O)[C@H](Cc2cnc[nH]2)NC(=O)[C@H]([C@@H](C)O)NC(=O)[C@H](CCCNC(=N)N)NC(=O)[C@H](CO)NC3=O)NC(=O)[C@H](CCCCN)NC(=O)[C@H](CC(=O)O)NC(=O)[C@H](CC(N)=O)NC(=O)[C@H](CC(=O)O)NC(=O)[C@@H]2CCCN2C1=O [[Glu33]GpTx-1(1-34)] (H-DCLGFMRKCIPDNDKCCRPNLVCSRTHKWCKYEF-NH2; disulfide 2-17, 9-23, 16-30)	–	27 nM	52 nM	> 10000 nM
CC[C@H](C)[C@@H]1NC(=O)[C@@H]2CSSC[C@@H]3NC(=O)[C@H](C(C)C)NC(=O)[C@H](CC(C)C)NC(=O)[C@H](CC(N)=O)NC(=O)[C@@H]4CCCN4C(=O)[C@H](CCCNC(=N)N)NC(=O)[C@H](CSSC[C@H](NC(=O)[C@@H](N)CC(=O)O)C(=O)N[C@@H](CC(C)C)C(=O)NCC(=O)N[C@@H](Cc4ccccc4)C(=O)N[C@@H](CCSC)C(=O)N[C@@H](CCCNC(=N)N)C(=O)N[C@@H](CCCCN)C(=O)N2)NC(=O)[C@H](CSSC[C@@H](C(=O)N[C@@H](CCCCN)C(=O)N[C@@H](Cc2ccc(O)cc2)C(=O)N[C@@H](CCC(N)=O)C(=O)N[C@@H](Cc2ccccc2)C(N)=O)NC(=O)[C@H](Cc2c[nH]c4ccccc24)NC(=O)[C@H](CCCCN)NC(=O)[C@H](Cc2c[nH]cn2)NC(=O)[C@H]([C@@H](C)O)NC(=O)[C@H](CCCNC(=N)N)NC(=O)[C@H](CO)NC3=O)NC(=O)[C@H](CCCCN)NC(=O)[C@H](CC(=O)O)NC(=O)[C@H](CC(N)=O)NC(=O)[C@H](CC(=O)O)NC(=O)[C@@H]2CCCN2C1=O [[Gln33]GpTx-1(1-34)] (H-DCLGFMRKCIPDNDKCCRPNLVCSRTHKWCKYQF-NH2; disulfide 2-17, 9-23, 16-30)	–	6 nM	10 nM	8250 nM
CC[C@H](C)[C@@H]1NC(=O)[C@@H]2CSSC[C@@H]3NC(=O)[C@H](C(C)C)NC(=O)[C@H](CC(C)C)NC(=O)[C@H](CC(N)=O)NC(=O)[C@@H]4CCCN4C(=O)[C@H](CCCNC(=N)N)NC(=O)[C@H](CSSC[C@H](NC(=O)[C@@H](N)CC(=O)O)C(=O)N[C@@H](CC(C)C)C(=O)NCC(=O)N[C@@H](Cc4ccccc4)C(=O)N[C@@H](CCSC)C(=O)N[C@@H](CCCNC(=N)N)C(=O)N[C@@H](CCCCN)C(=O)N2)NC(=O)[C@H](CSSC[C@@H](C(=O)N[C@@H](CCCCN)C(=O)N[C@@H](Cc2ccc(O)cc2)C(=O)N[C@H](C(=O)N[C@@H](Cc2ccccc2)C(N)=O)C(C)C)NC(=O)[C@H](Cc2c[nH]c4ccccc24)NC(=O)[C@H](CCCCN)NC(=O)[C@H](Cc2cnc[nH]2)NC(=O)[C@H](CC(C)C)NC(=O)[C@H](CCCNC(=N)N)NC(=O)[C@H](CO)NC3=O)NC(=O)[C@H](CCCCN)NC(=O)[C@H](CC(=O)O)NC(=O)[C@H](CC(N)=O)NC(=O)[C@H](CC(=O)O)NC(=O)[C@@H]2CCCN2C1=O [[Leu26]GpTx-1(1-34)] (H-DCLGFMRKCIPDNDKCCRPNLVCSRLHKWCKYVF-NH2; disulfide 2-17, 9-23, 16-30)	–	3 nM	23 nM	5010 nM
CC[C@H](C)[C@@H]1NC(=O)[C@@H]2CSSC[C@@H]3NC(=O)[C@H](C(C)C)NC(=O)[C@H](CC(C)C)NC(=O)[C@H](CC(N)=O)NC(=O)[C@@H]4CCCN4C(=O)[C@H](CCCNC(=N)N)NC(=O)[C@H](CSSC[C@H](NC(=O)[C@@H](N)CC(=O)O)C(=O)N[C@@H](CC(C)C)C(=O)NCC(=O)N[C@@H](C)C(=O)N[C@@H](CCSC)C(=O)N[C@@H](CCCNC(=N)N)C(=O)N[C@@H](CCCCN)C(=O)N2)NC(=O)[C@H](CSSC[C@@H](C(=O)N[C@@H](CCCCN)C(=O)N[C@@H](Cc2ccc(O)cc2)C(=O)N[C@@H](Cc2c[nH]c4ccccc24)C(=O)N[C@@H](Cc2ccccc2)C(N)=O)NC(=O)[C@H](Cc2c[nH]c4ccccc24)NC(=O)[C@H](CCCCN)NC(=O)[C@H](Cc2c[nH]cn2)NC(=O)[C@H]([C@@H](C)O)NC(=O)[C@H](CCCNC(=N)N)NC(=O)[C@H](CO)NC3=O)NC(=O)[C@H](CCCCN)NC(=O)[C@H](CC(=O)O)NC(=O)[C@H](CC(N)=O)NC(=O)[C@H](CC(=O)O)NC(=O)[C@@H]2CCCN2C1=O [[Ala5;Trp33]GpTx-1(1-34)] (H-DCLGAMRKCIPDNDKCCRPNLVCSRTHKWCKYWF-NH2; disulfide 2-17, 9-23, 16-30)	–	34 nM	569 nM	> 10000 nM
CC[C@H](C)[C@@H]1NC(=O)[C@@H]2CSSC[C@@H]3NC(=O)[C@H](C(C)C)NC(=O)[C@H](CC(C)C)NC(=O)[C@H](CC(N)=O)NC(=O)[C@@H]4CCCN4C(=O)[C@H](CCCNC(=N)N)NC(=O)[C@H](CSSC[C@H](NC(=O)[C@@H](N)CC(=O)O)C(=O)N[C@@H](CC(C)C)C(=O)NCC(=O)N[C@@H](Cc4ccccc4)C(=O)N[C@@H](CCSC)C(=O)N[C@@H](CCCNC(=N)N)C(=O)N[C@@H](CCCCN)C(=O)N2)NC(=O)[C@H](CSSC[C@@H](C(=O)N[C@@H](CCCCN)C(=O)N[C@@H](Cc2ccc(O)cc2)C(=O)N[C@H](C(=O)N[C@@H](Cc2ccccc2)C(N)=O)C(C)C)NC(=O)[C@H](Cc2c[nH]c4ccccc24)NC(=O)[C@H](CCCCN)NC(=O)[C@H]([C@@H](C)O)NC(=O)[C@H](CCCCN)NC(=O)[C@H](CCCNC(=N)N)NC(=O)[C@H](CO)NC3=O)NC(=O)[C@H](CCCCN)NC(=O)[C@H](CC(=O)O)NC(=O)[C@H](CC(N)=O)NC(=O)[C@H](CC(=O)O)NC(=O)[C@@H]2CCCN2C1=O [[Lys26;Thr27]GpTx-1(1-34)] (H-DCLGFMRKCIPDNDKCCRPNLVCSRKTKWCKYVF-NH2; disulfide 2-17, 9-23, 16-30)	–	4 nM	16 nM	1390 nM
CC[C@H](C)[C@@H]1NC(=O)[C@@H]2CSSC[C@@H]3NC(=O)[C@H](C(C)C)NC(=O)[C@H](CC(C)C)NC(=O)[C@H](CC(N)=O)NC(=O)[C@@H]4CCCN4C(=O)[C@H](CCCNC(=N)N)NC(=O)[C@H](CSSC[C@H](NC(=O)[C@@H](N)CC(=O)O)C(=O)N[C@@H](CC(C)C)C(=O)NCC(=O)N[C@@H](Cc4ccccc4)C(=O)N[C@@H](CCSC)C(=O)N[C@@H](CCCNC(=N)N)C(=O)N[C@@H](CCCCN)C(=O)N2)NC(=O)[C@H](CSSC[C@@H](C(=O)N[C@@H](CCCCN)C(=O)N[C@@H](Cc2cccc4ccccc24)C(=O)N[C@H](C(=O)N[C@@H](Cc2ccccc2)C(N)=O)C(C)C)NC(=O)[C@H](Cc2c[nH]c4ccccc24)NC(=O)[C@H](CCCCN)NC(=O)[C@H](Cc2cnc[nH]2)NC(=O)[C@H]([C@@H](C)O)NC(=O)[C@H](CCCNC(=N)N)NC(=O)[C@H](CO)NC3=O)NC(=O)[C@H](CCCCN)NC(=O)[C@H](CC(=O)O)NC(=O)[C@H](CC(N)=O)NC(=O)[C@H](CC(=O)O)NC(=O)[C@@H]2CCCN2C1=O [[1-Nal32]GpTx-1(1-34)] (H-DCLGFMRKCIPDNDKCCRPNLVCSRTHKWCK[1Nal]VF-NH2; disulfide 2-17, 9-23, 16-30)	–	–	12 nM	988 nM
CC[C@H](C)[C@@H]1NC(=O)[C@@H]2CSSC[C@@H]3NC(=O)[C@H](C(C)C)NC(=O)[C@H](CC(C)C)NC(=O)[C@H](CC(N)=O)NC(=O)[C@@H]4CCCN4C(=O)[C@H](CCCNC(=N)N)NC(=O)[C@H](CSSC[C@H](NC(=O)[C@@H](N)CC(=O)O)C(=O)N[C@@H](CC(C)C)C(=O)NCC(=O)N[C@@H](Cc4ccccc4)C(=O)N[C@@H](CCSC)C(=O)N[C@@H](CCCNC(=N)N)C(=O)N[C@@H](CCCCN)C(=O)N2)NC(=O)[C@H](CSSC[C@@H](C(=O)N[C@@H](CCCCN)C(=O)N[C@@H](Cc2ccc(O)cc2)C(=O)N[C@H](C(=O)N[C@@H](Cc2ccccc2)C(N)=O)C(C)C)NC(=O)[C@H](Cc2c[nH]c4ccccc24)NC(=O)[C@H](CCCCN)NC(=O)[C@H](Cc2cnc[nH]2)NC(=O)[C@H](CCCNC(=N)N)NC(=O)[C@H](CCCNC(=N)N)NC(=O)[C@H](CO)NC3=O)NC(=O)[C@H](CCCCN)NC(=O)[C@H](CC(=O)O)NC(=O)[C@H](CC(N)=O)NC(=O)[C@H](CC(=O)O)NC(=O)[C@@H]2CCCN2C1=O [[Arg26]GpTx-1(1-34)] (H-DCLGFMRKCIPDNDKCCRPNLVCSRRHKWCKYVF-NH2; disulfide 2-17, 9-23, 16-30)	–	–	10 nM	573 nM
